Measurements as given in article PMC8793064, “Bioassay Guided Fractionation of Senna singueana and Its Potential for Development of Poultry Phytogenic Feed Additives” (Frontiers in Veterinary Science, 2022).
≈ marks a conversion by molar mass, not a printed value. Marks after values point to notes of the source that are not given here.

Key:
[1] = DPPH free radical assay; details: for DPPH IC50: 30 min, 516 nm; for DPPH IC50 obtained after log transformation of data: value in brackets, data not normally distributed
Experimental: The antioxidant activities of the samples were measured in terms of radical scavenging ability using the stable radical (DPPH) method of Brand-Williams et al. ([12]) with some modifications. Methanol solutions (40 μl) of the samples and positive controls (Trolox and ascorbic acid) at various concentrations (0.1–100 μg/ml) were prepared by serial dilution in a 96 well-microtitre plate. One hundred and sixty (160) μl of DPPH in methanol adjusted to an absorbance between 0.9 and 1.0 was added and the plates were incubated in the dark at room temperature (25°C) for 30 min. Absorbance was measured against a blank with a microtitre plate reader (Epoch, BioTek, United States) at 516 nm. The DPPH scavenging effect was determined using the following formula:
(1) DPPH Scavenging Effect(%)=[(A1-A2/A1)] × 100
Where A1 is the absorbance of the control reaction and A2 is the absorbance in the presence of the sample. Trolox and ascorbic acid were used as controls. The experiments were conducted twice.

[2] = ABTS free-radical-scavenging assay; details: for ABTS IC50: 6 min, 734 nm; for ABTS IC50 obtained after log transformation of data: value in brackets, data not normally distributed
Experimental: The free radical-scavenging activity as a measure of hydrogen donating capacity was determined by using the ABTS cation decolourization method of Re et al. ([16]) with some modifications. ABTS radical solution (7 μM) was prepared by dissolving 1.32 × 10^4 μg of ABTS in 10 ml of 50% methanolic solution and 7.68 × 10^4 μg of potassium persulphate ([…]) in 10 ml of distilled water. The two solutions were mixed together and made up to 200 ml with 50% methanolic solution, and kept in the dark at room temperature, 25°C for 12 h. Prior to running the assay, the ABTS radical solution was diluted with 50% methanolic solution to an absorbance between 0.7 and 0.8 at 734 nm. The samples were serially diluted (40 μl) (0.1–100 μg/ml) in 96 well-microtitre plates and 160 μl of ABTS radical solution was added to each well. The absorbance readings were taken after exactly 6 min of reaction and blanks were prepared using the respective samples without ABTS radical. The scavenging effect was calculated using the following formula:
(2) ABTS Scavenging Effect(%)=[(A1-A2/A1)] × 100
The IC50 values were calculated from a graph plotted as inhibition percentage against the concentration. A Trolox standard curve was drawn by plotting percentage inhibition of the ABTS+ radical against the concentration of Trolox. Data from the test samples were analysed in a similar manner.

[3] = in vitro; details: monkey
Experimental: (§4) The cytotoxic effect of the fractions and the isolated compounds was determined using an in vitro assay with Vero monkey kidney cells ([15]). The growth medium used was Minimal Essential Medium (MEM, Whitehead Scientific) supplemented with 0.1% gentamicin (Virbac) and 5% foetal calf serum (Highveld Biological). The cells were seeded at a density of 10 000 cells/per well in 96-well-microtitre plates. The plates were incubated at 37°C in a 5% CO2 incubator in a humidified environment for 24 h to allow cell attachment.
(§5) After incubation, the medium was aspirated and replaced with fresh MEM. The fractions/compounds (100 μl) of varying concentrations were added to the wells containing cells. The anticancer compound doxorubicin (Pfizer Laboratories) was used as a positive control. A suitable blank control with equivalent concentrations of fresh medium was also included and the plates were further incubated for 48 h in a CO2 incubator. Subsequently, the medium in each well was aspirated from the cells, which were washed with phosphate-buffered saline (PBS) and fresh medium was then added to each well. A 30 μl aliquot of MTT (5 mg/ml in PBS) was added to each well and the plates were incubated at 37°C for 4 h. The medium was then aspirated from wells and 50 μl DMSO was added to each well to solubilise the formed formazan crystals. The absorbance was measured on a BioTek Synergy microtitre plate reader at 570 nm. Cell growth inhibition for each extract was expressed in terms of LC50 values. […] The cytotoxicity assay was repeated thrice.

[4] = test system: S. Enteritidis ATCC 13076; assay: Antibacterial TLC bioautography; assay type: cell-based, Salmonella enterica subsp. enterica var. Enteritidis
Source text: (§1) The compounds in the crude extract and fractions, as well as the purified compounds were developed as described above but the bioautograms were sprayed with respective cultures. After development, the TLC plates were dried overnight in a stream of cold air and sprayed with an actively growing concentrated suspension of strains of either Staphylococcus aureus (ATCC 29213), Salmonella enterica subsp. enterica var. Enteritidis (S. Enteritidis ATCC 13076) or Escherichia coli (ATCC 25922). The plates were dried and incubated overnight at 37°C in closed, sterile, humidified plastic containers to allow growth of the bacteria on the plates. After incubation, the plates were sprayed with a sterile 2 mg/ml solution of p-iodonitrotetrazolium (INT, Sigma-Aldrich) salt and incubated for a further 1 h. The presence of clear zones on the chromatogram after the incubation period indicated inhibition of growth as the INT is metabolised to a coloured formazan product by the actively growing cells ([11]). The retention factors of the bands of inhibition were calculated.

[5] = test system: Vero monkey kidney cells
Experimental: as §4, §5

[6] = Qualitative antioxidant activity, TLC sprayed with DPPH; details: TLC sprayed with DPPH 0.2% w/v
Experimental: TLC plates (10 × 20 cm, aluminium-backed, Merck, silica gel 60 F254) were loaded with 10 μl of the crude extract, fraction or compound (re-dissolved to 10 mg/ml) and dried before being developed in two mobile phase systems (CEF and EMW). […] A change of colour from the DPPH purple background to yellow indicated the presence of antioxidant compounds ([13]).

[7] = test system: Staphylococcus aureus (ATCC 29213); assay: Antibacterial TLC bioautography; assay type: cell-based; details: S. aureus
Source text: as §1

[8] = test system: Escherichia coli (ATCC 25922); assay: Antibacterial TLC bioautography; assay type: cell-based; details: E. coli
Source text: as §1

[9] = test system: Staphylococcus aureus (ATCC 29213); assay: MIC by serial two-fold microdilution; assay type: cell-based; details: ATCC29213, 24 h
Experimental: (§2) The four bacterial cultures were prepared by inoculating a single colony from an agar plate into 10 ml of sterilised Mueller-Hinton (MH) broth (Merck, South Africa) and incubating at 37°C in an MRC orbital shaker (150 rpm) incubator (United Scientific, South Africa) for 18 to 20 h prior to the experiment. Following incubation, each bacterial strain was diluted in MH broth (Merck, South Africa) and the absorbance was measured at a wavelength of 560 nm using a spectrophotometer (Epoch microplate reader: BioTek, United States).
(§3) The assay was performed in microtitre plates (Lasec, South Africa) by adding 100 μl of sterile water to all wells. In the first row, 100 μl of extract, fraction or compound were added in triplicate and serially diluted two-fold to the last well, from which 100 μl were then discarded. Gentamicin (Virbac, South Africa) was used as a positive control and a sterility control containing only water was included. This was followed by addition of 100 μl of the bacterial suspension to each well (except for the sterility control). The plates were sealed with parafilm and incubated at 37°C (IncoTherm, Labotec). After 24 h, 40 μl of a 0.2 mg/ml solution of INT was added to each well and the plate further incubated for at least half an hour to ensure adequate colour development. INT is a dehydrogenase activity detecting reagent, which is converted into an intensely coloured red-purple formazan by metabolically active micro-organisms. Inhibition of growth was indicated by a clear solution or a noticeable decrease in colour reaction. This value was taken as the MIC of the sample. The experiments were conducted twice.

[10] = test system: Escherichia coli (clinical strain); assay: MIC by serial two-fold microdilution; assay type: cell-based; details: 24 h
Experimental: as §2, §3

[11] = test system: Escherichia coli (ATCC 25922); assay: MIC by serial two-fold microdilution; assay type: cell-based; details: ATCC25922, 24 h
Experimental: as §2, §3

[12] = biological target: T1, 15-LOX (Glycine max, UniProt P08170); assay: biochemical
T1 construct: purchased Sigma Aldrich, Germany
T1 sequence (P08170 1-839): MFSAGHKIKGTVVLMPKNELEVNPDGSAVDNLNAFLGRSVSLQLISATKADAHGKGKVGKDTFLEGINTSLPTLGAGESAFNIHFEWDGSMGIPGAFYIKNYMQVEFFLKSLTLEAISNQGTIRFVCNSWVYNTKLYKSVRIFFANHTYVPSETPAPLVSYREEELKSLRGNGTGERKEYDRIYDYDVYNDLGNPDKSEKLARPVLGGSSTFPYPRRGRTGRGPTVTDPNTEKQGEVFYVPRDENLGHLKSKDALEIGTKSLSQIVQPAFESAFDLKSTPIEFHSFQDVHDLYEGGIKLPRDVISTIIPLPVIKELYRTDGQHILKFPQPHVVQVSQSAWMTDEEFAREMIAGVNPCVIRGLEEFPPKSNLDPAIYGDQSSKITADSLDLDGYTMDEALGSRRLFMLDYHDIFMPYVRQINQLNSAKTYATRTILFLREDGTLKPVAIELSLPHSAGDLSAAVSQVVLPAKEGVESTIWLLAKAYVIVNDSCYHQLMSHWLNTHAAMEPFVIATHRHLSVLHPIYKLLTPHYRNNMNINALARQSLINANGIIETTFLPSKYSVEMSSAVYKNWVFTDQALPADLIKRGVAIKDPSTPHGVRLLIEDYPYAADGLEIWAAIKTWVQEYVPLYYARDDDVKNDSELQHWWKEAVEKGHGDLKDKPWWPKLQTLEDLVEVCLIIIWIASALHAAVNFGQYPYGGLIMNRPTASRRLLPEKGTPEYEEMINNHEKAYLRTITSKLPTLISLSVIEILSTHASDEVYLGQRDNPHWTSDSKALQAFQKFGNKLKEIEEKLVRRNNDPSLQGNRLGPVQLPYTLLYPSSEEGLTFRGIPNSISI
Experimental: Lipoxygenase (LOX) activity of the samples was determined spectrophotometrically according to published methods ([17], [18]). LOX inhibition was determined spectrophotometrically based on the formation of the complex Fe3+/xylenol orange as described by Pinto et al. ([19]). Briefly, 20 μl of Tris-HCl buffer (pH 7.4) was added to all wells of the 96-well-microplates. This was followed by the addition of 20 μl of the fractions (1 or 0.5 mg/ml) in the first row of the plate which was serially diluted. […] After the serial dilution, 40 μl of the lipoxygenase enzyme (Sigma Aldrich, Germany) was added to each well and the plates were incubated at room temperature 25°C for 5 min. After incubation, 40 μl of linoleic acid (final concentration, 140 μM) prepared in Tris-HCl buffer (50 mM, pH 7.4) was added to the well (except for the blanks). The plates were incubated at 25°C for 20 min in the dark. After incubation, 100 μl of freshly prepared ferrous oxidation–xylenol orange (FOX) reagent [sulfuric acid (30 mM), xylenol orange (100 μM), iron (II) sulphate (100 μM) in methanol/water (9:1)] was added to all wells. The plates were further incubated at 25°C for 30 min in the dark, 40 μl of linoleic acid was then added to the blanks. The absorbance was measured at 560 nm. […] The experiments were conducted twice.

[13] = test system: three ATCC strains and E. coli clinical strain; assay: MIC by microdilution, stated over the whole panel of strains; assay type: cell-based
Experimental: as §2
as §3, with “INT is a dehydrogenase activity detecting reagent, which is converted into an intensely coloured red-purple formazan by metabolically active micro-organisms. Inhibition of growth was indicated by a clear solution or a noticeable decrease in colour reaction. This value was taken as the MIC of the sample. The experiments were conducted twice.” left out

[14] = test system: Salmonella Enteritidis (ATCC 13076); assay: MIC by serial two-fold microdilution; assay type: cell-based, Salmonella enterica subsp. enterica var. Enteritidis; details: Salmonella enterica, 24 h
Experimental: as §2
as §3, with “INT is a dehydrogenase activity detecting reagent, which is converted into an intensely coloured red-purple formazan by metabolically active micro-organisms. Inhibition of growth was indicated by a clear solution or a noticeable decrease in colour reaction. This value was taken as the MIC of the sample. The experiments were conducted twice.” left out

Row | DPPH IC50 [1] | ABTS IC50 [2] | SMILES | DPPH IC50 obtained after log transformation of data [1] [μg/ml] | ABTS IC50 obtained after log transformation of data [2] [μg/ml] | CC50 at 48 h [3] [µg/mL] | MIC [9] [µg/mL] | MIC [10] [µg/mL] | MIC [11] [µg/mL] | other results
1 | 1.97 ± 0.21 µg/mL | 1.90 ± 0.07 µg/mL | O=C1O[C@H]([C@@H](O)CO)C(O)=C1O [Ascorbic acid, ascorbic acid] | 2.45 | 2.45 | – | – | – | – | –
2 | – | – | COc1cccc2c1C(=O)c1c(O)c3c(c(O)c1C2=O)C[C@@](O)(C(=O)CO)C[C@@H]3O[C@H]1C[C@H](N)[C@H](O)[C@H](C)O1 [Doxorubicin, doxorubicin, reference compound] | – | – | 9 ± 1.28 (≈ 16.6 µM) | – | – | – | –
3 | – | – | CNC(C)C1CCC(N)C(OC2C(N)CC(N)C(OC3OCC(C)(O)C(NC)C3O)C2O)O1 (stereo not drawn) [Gentamicin, reference compound] | – | – | – | 20 (≈ 41.9 µM) | 20 (≈ 41.9 µM) | 20 (≈ 41.9 µM) | MIC [14]: 20 µg/mL (≈ 41.9 µM)
4 | 3.19 ± 0.32 µg/mL | 2.21 ± 0.30 µg/mL | Cc1c(C)c2c(c(C)c1O)CCC(C)(C(=O)O)O2 (stereo not drawn) [Trolox] | 4.02 | 2.76 | – | – | – | – | –

Row | SMILES | DPPH IC50 [1] | ABTS IC50 [2] | DPPH IC50 obtained after log transformation of data [1] [μg/ml] | ABTS IC50 obtained after log transformation of data [2] [μg/ml] | CC50 at 48 h [3] [µg/mL] | MIC [9] [µg/mL] | MIC [10] [µg/mL] | MIC [11] [µg/mL] | other results
5 | O=c1cc(-c2ccc(O)c(O)c2)oc2cc(O)cc(O)c12 [Compound 1, luteolin] | 5.92 ± 0.64^a μg/ml | 8.17 ± 0.80^a μg/ml | – | – | 92.9 ± 1.7 (≈ 325 µM) | 625 (≈ 2180 µM) | 156 (≈ 545 µM) | 156 (≈ 545 µM) | antibacterial activity in bioautography [4]: active; cytotoxicity class [5]: moderate; antioxidant activity in bioautography (DPPH bleaching) [6]: antioxidant activity; antibacterial activity in bioautography [7]: active; antibacterial activity in bioautography [8]: active; IC50 [12]: 25.8 µM; MIC ([13]; Escherichia coli, three ATCC strains and E. coli clinical strain, read-out: MIC values over the tested strains): > 100 µg/mL; antibacterial activity class ([13]; all the tested bacterial strains): weak (values >625 μg/ml indicate weak activity)
